Measurements as given in paper PMC5538589, “Discovery of Novel Allopurinol Derivatives with Anticancer Activity and Attenuated Xanthine Oxidase Inhibition” (Molecules, 2016).
Where two headings read alike, the source gives them in different places.

Tests used:
[1] = test system: MCF-10A cells; assay: Cytotoxicity towards normal MCF-10A mammary epithelial cells (Cell Titer-Glo); conditions: human, MCF-10A normal mammary epithelial cells
[2] = test system: MDA-MB-231 cells; assay: Cell survival/growth assay (Coulter cell count), MDA-MB-231 cells; assay type: cell-based; conditions: 5 days, treated/vehicle cell number ratio; for viability at 1 µM / viability at 10 µM: Homo sapiens, 120 h; for viability at 1 µM: read-out: Survival Rate (%) 1 μM; for viability at 10 µM: read-out: Survival Rate (%) 10 μM;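 for all read-outs here: cells grown in DMEM with 5% FBS, vehicle control was an equal volume of DMSO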
[3] = test system: SMMC-7221; design: method as in PMID 23851116; conditions: value from earlier study; cited from earlier work
[4] = test system: BEL-7402; design: method as in PMID 23851116; conditions: value from earlier study; cited from earlier work
[5] = test system: BEL-7402; assay: MTT cell viability assay, human hepatoma carcinoma BEL-7402 cells; assay type: cell-based; conditions: 24 h treatment, concentration inhibiting cancer cell replication by 50%, tested up to 100 μM
[6] = test system: SMMC-7221; assay: MTT cell viability assay, human hepatoma carcinoma SMMC-7221 cells; assay type: cell-based; conditions: read-out: IC50 SMMC-7221
[7] = test system: MCF-10A cells; assay: in vitro; conditions: human
[8] = test system: normal cells versus tumor types; design: method as in PMID 12213470, PMID 15217612; conditions: normal cells more resistant to anti-cancer effects; cited from earlier work
[9] = target: xanthine oxidase (XOD) (Bos taurus, UniProt P80457); conditions: test concentrations 5, 10, 15, 25 μM; allopurinol positive control
[10] = SMMC-7221, MTT, 24 h treatment, concentration inhibiting cancer cell replication by 50%, tested up to 100 μM

Sequence of xanthine oxidase (XOD) (P80457 2-1332 limits assumed): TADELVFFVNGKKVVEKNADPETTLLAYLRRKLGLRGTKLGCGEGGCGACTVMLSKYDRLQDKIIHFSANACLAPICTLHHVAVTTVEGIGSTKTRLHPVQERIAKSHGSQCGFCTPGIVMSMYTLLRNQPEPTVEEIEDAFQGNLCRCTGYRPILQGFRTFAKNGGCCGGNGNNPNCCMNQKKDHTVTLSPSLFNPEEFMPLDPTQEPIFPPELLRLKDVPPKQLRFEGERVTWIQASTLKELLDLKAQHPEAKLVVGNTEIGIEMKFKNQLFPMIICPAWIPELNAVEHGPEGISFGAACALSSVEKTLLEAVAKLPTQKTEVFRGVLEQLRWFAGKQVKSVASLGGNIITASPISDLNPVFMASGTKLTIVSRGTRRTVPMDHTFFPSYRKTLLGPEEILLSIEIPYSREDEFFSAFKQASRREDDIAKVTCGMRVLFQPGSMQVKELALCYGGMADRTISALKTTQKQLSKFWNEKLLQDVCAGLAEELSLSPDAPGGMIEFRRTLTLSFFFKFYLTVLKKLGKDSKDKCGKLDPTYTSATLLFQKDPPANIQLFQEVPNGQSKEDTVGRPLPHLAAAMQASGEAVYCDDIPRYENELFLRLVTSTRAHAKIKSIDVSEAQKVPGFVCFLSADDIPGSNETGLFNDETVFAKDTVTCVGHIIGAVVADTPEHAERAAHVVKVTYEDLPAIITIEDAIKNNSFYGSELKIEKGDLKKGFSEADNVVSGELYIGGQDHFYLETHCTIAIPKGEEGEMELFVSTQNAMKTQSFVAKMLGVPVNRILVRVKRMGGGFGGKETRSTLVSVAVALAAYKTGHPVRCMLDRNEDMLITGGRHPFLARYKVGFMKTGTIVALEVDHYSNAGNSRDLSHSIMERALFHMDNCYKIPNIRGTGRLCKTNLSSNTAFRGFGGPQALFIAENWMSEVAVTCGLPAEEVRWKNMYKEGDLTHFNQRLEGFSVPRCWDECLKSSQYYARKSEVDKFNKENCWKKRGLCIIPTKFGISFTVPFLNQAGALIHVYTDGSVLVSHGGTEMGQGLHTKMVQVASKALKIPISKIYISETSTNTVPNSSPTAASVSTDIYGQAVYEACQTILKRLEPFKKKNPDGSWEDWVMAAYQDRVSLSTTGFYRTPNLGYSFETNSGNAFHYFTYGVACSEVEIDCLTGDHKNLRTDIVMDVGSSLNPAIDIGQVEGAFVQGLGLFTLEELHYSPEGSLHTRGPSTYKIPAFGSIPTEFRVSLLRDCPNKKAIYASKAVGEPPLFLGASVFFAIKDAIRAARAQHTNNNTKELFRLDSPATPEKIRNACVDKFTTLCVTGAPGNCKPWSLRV

Compound | viability at 1 µM ([2]; MDA-MB-231, 1 μM) [%] | viability at 10 µM ([2]; MDA-MB-231, 10 μM) [%] | IC50 [5] [µM] | melting point [°C] | IC50 [6, 10] [µM] | other results
CCOC(=O)Cn1ncc2c(Nc3ccc(NC(=O)CCl)cc3)ncnc21 [Compound 1] | 40.2 ± 3.9 | 1 ± 0.6 |  |  |  | IC50 at 72 h [1]: 5.59 ± 0.27 µM; IC50 [3]: 9.03 µM; IC50 [4]: 18.7 µM
CCn1ncc2c(Cl)ncnc21 [Compound 3, 4-Chloro-1-ethyl-1H-pyrazolo[3,4-d]pyrimidine] | 86.2 ± 8.6 | 67 ± 4.8 | > 100 | 76 to 77 | > 100 | 
CCn1ncc2c(NN)ncnc21 [Compound 4, 1-Ethyl-4-hydrazinyl-1H-pyrazolo[3,4-d]pyrimidine] | 66.1 | 27.8 | 25.5 ± 0.4 |  |  | IC50 at 72 h [1]: 17.4 ± 0.69 µM; Survival Rate (%) 1 μM ([2]; MDA-MB-231, 1 μM): 66.1 ± 0.5%; Survival Rate (%) 10 μM ([2]; MDA-MB-231, 10 μM): 27.8 ± 2.4%; IC50 ([6]; SMMC-7221, 24 h): 35.2 ± 0.4 µM
CCn1ncc2c(NNS(=O)(=O)c3ccc(C)cc3)ncnc21 [Compound 5a, N′-(1-Ethyl-1H-pyrazolo[3,4-d]pyrimidin-4-yl)-4-methylbenzenesulfonohydrazide] | 89.1 ± 1.5 | 72.8 ± 3.9 | > 100 | 186 to 187 | > 100 | 
CCn1ncc2c(NNS(=O)(=O)c3ccc([N+](=O)[O-])cc3)ncnc21 [Compound 5b, N′-(1-Ethyl-1H-pyrazolo[3,4-d]pyrimidin-4-yl)-4-nitrobenzenesulfonohydrazide] | 92.9 ± 1.5 | 68 ± 2.4 | > 100 | 194 to 195 | > 100 | 
CCn1ncc2c(NNS(=O)(=O)c3ccccc3)ncnc21 [Compound 5c, N′-(1-Ethyl-1H-pyrazolo[3,4-d]pyrimidin-4-yl)benzenesulfonohydrazide] | 75.7 ± 11 | 74.7 ± 0.1 | > 100 | 194 to 195 | > 100 | 
CCn1ncc2c(NNS(=O)(=O)c3ccc(Br)cc3)ncnc21 [Compound 5d, 4-Bromo-N′-(1-ethyl-1H-pyrazolo[3,4-d]pyrimidin-4-yl)benzenesulfonohydrazide] | 80.5 ± 2 | 70.9 ± 1 | > 100 | 194 to 195 | > 100 | 
CCn1ncc2c(NNC(C)=O)ncnc21 [Compound 5e, N′-(1-Ethyl-1H-pyrazolo[3,4-d]pyrimidin-4-yl)acetohydrazide] | 94.8 ± 0.5 | 61.3 ± 1 | > 100 |  | > 100 | IC50 at 72 h [1]: 20.2 ± 0.81 µM
CCn1ncc2c(N(NC(=O)c3ccccc3)C(=O)c3ccccc3)ncnc21 [Compound 5f, N′-Benzoyl-N′-(1-ethyl-1H-pyrazolo[3,4-d]pyrimidin-4-yl)benzohydrazide] | 102 ± 11 | 88.1 ± 1 | > 100 | 144 to 146 | > 100 | 
CCn1ncc2c(NNC(=O)CCl)ncnc21 [Compound 5g, 2-Chloro-N′-(1-ethyl-1H-pyrazolo[3,4-d]pyrimidin-4-yl)acetohydrazide] | 105 ± 4.8 | 105 ± 2.9 | > 100 | 202 to 204 | > 100 | IC50 at 72 h [1]: 23.3 ± 0.71 µM
Clc1ncnc2c1cnn2Cc1ccccc1 [Compound 6, 1-Benzyl-4-chloro-1H-pyrazolo[3,4-d]pyrimidine] | 77.6 ± 9.1 | 75.7 ± 1.5 | > 100 | 62 to 63 | > 100 | 
NCCNc1ncnc2c1cnn2Cc1ccccc1 [Compound 7, N1-(1-Benzyl-1H/-pyrazolo[3,4-d]pyrimidin-4-yl)ethane-1,2-diamine] | 81.4 ± 7.2 | 57.5 ± 1 | > 100 |  | > 100 | 
O=S(=O)(NCCNc1ncnc2c1cnn2Cc1ccccc1)c1ccccc1 [Compound 8a, N-(2-((1-Benzyl-1H-pyrazolo[3,4-d]pyrimidin-4-yl)amino)ethyl)benzenesulfonamide] |  | 58.4 ± 2.4 | 66.61 ± 0.62 |  | > 100 | 
O=[N+]([O-])c1ccc(S(=O)(=O)NCCNc2ncnc3c2cnn3Cc2ccccc2)cc1 [Compound 8b, N-(2-((1-Benzyl-1H-pyrazolo[3,4-d]pyrimidin-4-yl)amino)ethyl)-4-nitrobenzenesulfonamide] | 75.7 ± 2.4 | 71.8 ± 8.5 | > 100 |  | 81.46 ± 0.78 | 
O=S(=O)(NCCNc1ncnc2c1cnn2Cc1ccccc1)c1ccc(Br)cc1 [Compound 8c, N-(2-((1-benzyl-1H-pyrazolo[3,4-d]pyrimidin-4-yl)amino)ethyl)-4-bromobenzenesulfonamide] | 105 ± 8.6 | 78.5 ± 3.9 | > 100 |  | > 100 | 
C=CCNC1=C2C[C@@H](C)C[C@H](OC)[C@H](O)[C@@H](C)/C=C(\C)[C@H](OC(N)=O)[C@@H](OC)/C=C\C=C(/C)C(=O)NC(=CC1=O)C2=O [Compound 17-AAG, 17-N-allylamino-17-demethoxy geldanamycin, reference compound] | 6.7 ± 0.5 | 4.8 ± 0.5 | 12.4 ± 0.1 |  | 9.85 ± 0.08 | IC50 at 72 h [7]: 0.09 ± 0.01 µM
C#CCCCn1c(Cc2cc(OC)c(OC)c(OC)c2Cl)nc2c(N)nc(F)nc21 [PU24FCl] |  |  |  |  |  | Resistance of normal cells relative to tumor cells [8]: 10- to 50 fold
Oc1ncnc2[nH]ncc12 [allopurinol, 4-hydroxyl-1H-pyrazolo[3,4-d]pyrimidine] | 84.3 ± 7.7 | 51.7 ± 6.7 |  |  |  | XOD inhibitory activity (in words) [9]: strong inhibitor of XOD
